“And” between values parts separate entries of the source, which are not always exact repeats. Equal values may be shown once. “Also recorded” adds a separate entry of the source. Blank lines part the entries; values can stand above or below the molecule they belong to.
Tests used:
[1] = tested on: NRLP3 pathway; assay: Testing of the NRLP3 pathway: KRAS peptide recognition by TIL expanded with or without MCC950; format: cell-based, human; details: TIL expanded with cardiolipin in presence of MCC950 (10 uM/mL)
Procedure: The number of peptide targets recognized as well as the amount of IFN-γ in pg/10e^4 TIL/target/7 days was analyzed and compared in the cardiolipin-positive versus negative group testing with Human IFN-γ ELISA basic kit (HRP).
Since cardiolipin has been reported to activate the NRLP3 inflammasome, aliquots of these same TIL preparation were expanded and the absence or presence of the NRLP3 inhibitor (MCC950) was investigated.

[2] = tested on: TIL; assay: IFN-γ induction assay / cytokine production of TIL after anti-CD3 crosslinking, 24 h, 10e5 cells; format: cell-based, human; details: TIL with or without cardiolipin
Procedure: In table 3, TIL were seated in at 10e^5 cells/well in triplicates in medium containing IL-2/IL-7/IL-15+cardiolipin (medium) or in IL-2/IL-7/IL-15+cardiolipin plus anti-CD3-IgG1 at 30 ng/mL to crosslink the T-cell receptor.
Supernatants were harvested after 24 hours in order to test for maximal T-cell activation defined in 24 hrs./10e^5 cells for comparison. The delta between maximal stimulation (b) and constitutive cytokine production (A) is summarized in row “delta (B-A)”.
This assay is used to measure the IFN-γ production after anti-CD3 induced activation during 24 h in 10^5 cells.

[3] = tested on: PBMCs; assay: Percentage of γδ T-cells in healthy individuals PBMCs expanded in presence or absence of cardiolipin; format: cell-based, human
Procedure: PBMCs of healthy individuals expanded in the presence of cardiolipin without interleukins increased the frequency of γδ T-cells (Table 4).
(§1) TIL and PBMCs were analyzed using several DuraClone (Beckman Coulter) Panels, always with addition of the LIVE/DEAD™ Fixable Yellow Dead Cell Stain Kit: DuraClone IM T-cell Subsets tube adding LAG-3 BV650 and CD95 BV785 and Duraclone IM TCRs tube. Besides, another panel with commercially available antibodies were used, which included CD4 Pacific Blue, CD8 KromeOrange, CXCR3 BV650, CD95 BV785, CD103 FITC, CCR7 PE, CCR4 PE/Dazzle, TCR pan-γ/δ PC5.5, CCR6 PC-7, CCR9 Alexa Fluor 647, CD45RA AF700, CD3 APC-A750 and LIVE/DEAD™ Fixable Yellow Dead Cell Stain Kit. After 15 minutes incubation, T-cells and PBMCs were washed in PBS-2% FBS and acquired using a CytoFlex LX flow cytometer from Beckman Coulter. Analysis was performed using FlowJo software.

[4] = tested on: TIL; assay: Flow cytometric analysis of TIL and PBMC phenotype; format: cell-based, human
Procedure: Different phenotypes in TIL were observed, when using different tumor regions in the three-expansion step herein proposed.
γδ T-cells were negatively sorted using a commercial kit from Stem Cell. Purity of negatively sorted cells was tested by flow cytometry using the DURAclone panel IM TCRs.
as §1

[5] = tested on: PBMCs from healthy individuals; assay: Cardiolipin titration: IFN-γ and IL-17A production in PBMCs and whole blood; format: cell-based, human; details: 250 nM cardiolipin, PBMCs from healthy individuals stimulated with OKT3 (30 ng/mL)
[6] = tested on: TIL; assay: Peptide recognition assay in TIL (IFN-γ ELISA / IL-17 in supernatant, 7 days); format: cell-based, human
Procedure: Peptides from tumor-associated antigens (TAAs), listed in Table 5 were placed at 1 ug/well in duplicates using anti-CD3 at 30 ng/mL as well as PHA at 5 μg/mL as positive controls.
The differences in TIL versus PBMCs can also be defined by peptide reactivity. 10e^4 TIL or 10e^4 PBMC/well were co-cultured with the peptides listed in Table 11 below for 7 days and the supernatants were tested for IFN-γ production.

[7] = tested on: TIL; assay: Treg detection assay; format: cell-based, human; details: TIL with or without cardiolipin
Procedure: Briefly, cells were stained extracellularly with CD3 PE (clone UCHT-1, BD 555749), CD4 V450 (clone RPA-T4, BD 561838), CD8 APC-Cy7 (clone SK1, BD 557834), CD25 PE-Cy7 (clone 2A3, BD 335824), CD127 APC (clone R34.34, Beckman Coulter B42026) for 15 minutes in ice and then washed and permeabilized using Biolegend's True-Nuclear Transcription Factor Buffer Set according to manufacturer's instructions.
Cells were then stained intracellularly with FOXP3 Alexa488 antibody (clone 259D/C7, BD 560047) or an IgG1 isotype control Alexa 488 (BD 557702), and CD3 PE (clone UCHT-1, BD 555749). Tregs cells were identified by flow cytometry as CD3^+ CD4^+ CD25^high CD127^−FoxP3^+).

[8] = tested on: TIL; assay: CD107a assay; format: cell-based, human; details: TIL with or without cardiolipin
Procedure: Briefly, positive control cells were stimulated with 1 μg/mL of PMA; non-stimulated cells served as the control and data were performed in triplicates. Both stimulated and non-stimulated cells were incubated with a protein transport inhibitor containing monensin (BD, 51-2092kz) and CD107a PE antibody (clone H4A3, BD 555801) for 2 hours. Then an extracellular staining was performed using CD3 PE-Cy7 (clone UCHT1, BD 563423), CD4 V450 (clone RPA-T4, BD 561838) and CD8 APC-Cy7 (clone SK1, BD 557834). Control cells are PBMCs that had been cultured for 48-72 hours in the presence of 300 IU/mL IL-2 and 50 IU/mL IL-15. The assay is considered as positive if the positive control cells (PMA stimulated) have at least 2× the SD of the triplicates of the negative control.

[9] = tested on: TIL; assay: RNA sequencing, differential gene expression in TIL grown with and without cardiolipin; format: cell-based, human; details: TIL expanded with vs without cardiolipin, DESeq2 FDR <0.10
Procedure: RNA from TIL was isolated using the commercially available RNeasy Mini Kit (Qiagen) and sequencing was done using the Illumina NovaSeq 6000 system with 100 bp paired end read lengths. Adapters were removed.
Transcriptome sequencing data alignment was performed using STAR two-pass method to human genome build hg19. Duplicates were marked using the Picard's MarkDuplicates tool and reads were split using the GATK SplitNCigarReads tool and variants were called using Varscan2. STAR-Fusion was used to identify candidate fusion transcripts and its output was annotated using AGFusion.
RNA sequencing was performed in seven of TIL expansions (i.e. from seven individual patients) with or without cardiolipin and tested for differential gene expression (FIG. 15). Genes with extremely low counts across samples were removed because they provide little evidence for differential expression and may interfere with some of the statistical approximations used.

[10] = tested on: human IgG in serum from patients with pancreatic cancer; assay: ELISA of serum IgG binding to MUC4 epitope PVTSLSSVSTGDTTP (OD 405 nm); details: sera from patient S1 and S15, dilutions 1:2 and 1:10
Source text: The MUC4 peptide is targeted by human IgG in serum from patients with cancer. […] The epitope PVTSLSSVSTGDTTP was linked to an ELISA plate via a streptavidin-biotin scaffold and tested for IgG recognition in serum from different patients with pancreatic cancer. The optical density (OD) read at 405 nm wavelength was used to detect IgG binding in sera from patients showing that some individuals have a higher IgG concentration to this epitope as compared to other patients, some patients have no IgG reactivity at all showing that there is individual IgG reactivity to this distinct MUC4 epitopes. The anti-human IgG directed antibody A2064 clone GG-5 from Sigma-Aldrich coupled to Alkaline-Phosphatase was used to detect epitope reactivity. The assay layout and reactivity reading are shown in Tables 12 and 13 (layouts and ODs, respectively) below.
Sera from different patients with PDAC (labeled as S1-S15) were incubated with the target epitope at different dilutions in phosphate-buffered saline (PBS) (1:2 and 1:10) and reactivity was tested based on the OD reading.

Molecule: CC(C)(O)c1coc(S(=O)(=O)NC(=O)Nc2c3c(cc4c2CCC4)CCC3)c1 [MCC950]
tumor associated antigen (KRAS epitope) recognition in TIL [1]: statistically reduces the function of cardiolipin; also recorded: reduces the tumor associated antigen recognition in TIL

Molecule: cardiolipin
IFN-γ production in TIL [2]: no differences
IL-17 production in TIL [2]: no differences
frequency of γδ T-cells ([3]; PBMCs of healthy individuals expanded with cardiolipin without interleukins): increased
Percentage of γδ T-cells, w/CL ([3]; healthy individuals PBMCs, presence of cardiolipin, without interleukins, single donors, listed as CL): 10.5% and 9.32% and 26% and 10.9% and 22.9%
Percentage of γδ T-cells, w/CL, Average ([3]; healthy individuals PBMCs, presence of cardiolipin, average of donors): 15.92%
T-cell maturation, activation, or exhaustion markers ([4]; CD4+, CD8+, double-positive, double-negative or γδ+ TIL, with vs without cardiolipin): not observed
frequency of γδ TIL ([4]; TIL expanded with IL-7, IL-15, IL-21 with vs without cardiolipin): increased
production of IFN-γ [5]: favorable production of IFN-γ
recognition of commonly shared tumor-associated antigens (KRAS, mesothelin) by TIL, IFN-γ production ([6]; TIL expanded in cardiolipin): recognized a high number of KRAS as well as mesothelin targets
regulatory T-cells (Treg) in TIL [7]: no differences
CD107 induction in TIL [8]: no differences
CXCL9 gene expression [9]: over-expressed
CXCL10 gene expression [9]: over-expressed
KBTBD11 gene expression [9]: statistically reduced

IgG binding reactivity to the nominal MUC4 epitope [10]: strong IgG binding reactivity
Molecule: PVTSLSSVSTGDTTP [MUC4-P3 [Mut][WT]]
Pancreatic TIL D1599 IFN-y ([6]; Pancreatic TIL D1599): 0 pg/mL
Pancreatic TILD1599 IL 17 ([6]; Pancreatic TIL D1599): 2 pg/mL

From patent US20250314636A1, “METHOD OF PREPARING AND EXPANDING A POPULATION OF IMMUNE CELLS FOR CANCER THERAPY, POTENCY ASSAY FOR TUMOR RECOGNITION, BIOLOGICAL VACCINE PREPARATION AND EPITOPETARGET FOR ANTIBODIES” (FUNDAÇÃO D. ANNA DE SOMMER CHAMPALIMAUD E DR. CARLOS MONTEZ …, priority 2022, published 2025)
